Test [1] concerns the target T1, JAK3 (Homo sapiens, UniProt P52333).
T1 construct: made in house
The test is described as follows: Competition binding assay, JAK3. The conditions noted are these: read-out: Binding Assay: JAK3 (active_KD, ENZ). An excerpt:
(§1) Competition Binding Assay to Determine Binding Constants (Kd) of the Compounds Against JAK Kinases
(§2) Competition binding assays used herein were developed, validated and performed as described in Fabian et al., Nature Biotechnology 2005, 23,329-336. Kinases were produced as fusions to T7 phage (See, Fabian et al. or WO04/015142) or alternatively, the kinases were expressed in HEK-293 cells and subsequently tagged with DNA for PCR detection (See, WO08/005310). For the binding assays, streptavidin-coated magnetic beads were treated with biotinylated affinity ligands for 30 min at rt to generate affinity resins. The liganded beads were blocked with excess biotin and washed with blocking buffer (SeaBlock (Pierce), 1% BSA, 0.05% Tween 20, 1 mM DTT) to remove unbound ligand and to reduce non-specific binding. […] Test compounds were prepared as 100× stocks in DMSO and rapidly diluted into the aqueous environment. DMSO was added to control assays lacking a test compound. Primary screen interactions were performed in polypropylene 384-well plates in a final volume of 34 μL, while Kd determinations were performed in polystyrene 96-well plates in a final volume of 135 μL. […] The kinase concentration in the eluates was measured by quantitative PCR. Each kinase was tested individually against each compound. Kds were determined using eleven serial threefold dilutions. A selectivity score, which is a quantitative measure of selectivity of a compound against a panel of enzymes, may be calculated for a compound by dividing the number of enzymes for which a compound meets a set criteria, (for example, a binding constant of 100 nM or less), by the total number of enzymes tested.

Test [2] addresses T2, JAK2 (Homo sapiens, UniProt O60674).
T2 construct: made in house
In words: Competition binding assay, JAK2. Conditions: read-out: Binding Assay: JAK2 (active_KD).
Description: as §1, §2

Test [3] deals with csTF-1 cells (GM-CSFR/JAK2/STAT5 pathway). The test is described as follows: csTF-1 cell-based reporter assay. The conditions noted are these: Homo sapiens; GM-CSF at 2 ng/mL, 4 hours; read-out: Cell Assay: CS0017: CS TF-1 reporter assay: IC50. On the set-up: species or system human. The method, then: csTF-1 Cell-based Reporter Assay
csTF-1 cells are derived from the human erythroleukemia cell line that is growth dependent on GM-CSF and has an intact GM-CSFR/JAK2/STAT5 pathway. The cell line contains stably integrated beta-lactamase reporter gene under the control of the […] (irf 1) response element recognized by the activated transcription factor STATS. csTF-1 cells (Invitrogen K1219) were washed with assay media (97% OPTIMEM/0.5% dialyzed FBS/0.1 mM NEAA/1 mM Na pyr/P/S) and seeded in the same media at 5×10^5 cell/mL in T150 flask. After 16 hour incubation, cells were seeded at 2×10^5 cell/well in 50 μl volume, into Costar, clear bottom, 96-well assay plates. Serial dilutions of compounds were added to the plates with final DMSO concentration at 0.5% and GM-CSF at 2 ng/mL and the plates were then incubated at […] and 5% CO2 for 4 hours. The plates were brought to room temperature before adding Substrate Mixture according to manufacturer's protocol (Invitrogen, Catalog #K1085). The assay plates containing the substrate mixture were incubated in the dark at room temperature for 2 hours. Blue and green fluorescence was measured with excitation at 409 nm and emission at 460 nm (for blue) and excitation at 409 nm and emission at 530 nm (for green) using Spectra Max Gemini EM.
On the technique in general: Reporter assays use an easily measured gene product as a stand-in for the process of interest.

This note sets out measurements from patent US8349851B2, “JAK kinase modulating compounds and methods of use thereof” (Ambit Biosciences Corp., priority 2009, dated 2013).

The structures appear in SMILES notation.

By IC50 is commonly meant the point on the concentration scale where inhibition reaches its midpoint.

T1 sequence (P52333 822-1111 limits assumed): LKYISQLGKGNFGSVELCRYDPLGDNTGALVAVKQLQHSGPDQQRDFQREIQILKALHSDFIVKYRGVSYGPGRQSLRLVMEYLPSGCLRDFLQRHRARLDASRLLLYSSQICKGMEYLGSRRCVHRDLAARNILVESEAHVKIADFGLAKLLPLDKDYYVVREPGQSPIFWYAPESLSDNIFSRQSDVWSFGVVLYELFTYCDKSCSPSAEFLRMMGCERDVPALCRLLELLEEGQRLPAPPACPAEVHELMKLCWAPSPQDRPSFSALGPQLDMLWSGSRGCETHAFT
T2 sequence (O60674 849-1124 limits assumed): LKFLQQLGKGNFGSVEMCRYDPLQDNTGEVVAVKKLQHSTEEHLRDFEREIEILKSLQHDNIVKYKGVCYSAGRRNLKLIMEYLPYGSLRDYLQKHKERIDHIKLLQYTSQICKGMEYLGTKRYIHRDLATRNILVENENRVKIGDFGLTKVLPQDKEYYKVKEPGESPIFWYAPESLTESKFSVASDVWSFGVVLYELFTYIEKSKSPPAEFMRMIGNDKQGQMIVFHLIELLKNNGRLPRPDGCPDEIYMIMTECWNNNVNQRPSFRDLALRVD

In the case of `Cc1cc(Nc2nc(C(O)c3ccc(F)cc3)nc3ccc(F)cc23)n[nH]1` (racemic) [Example 54, (R,S)-(6-fluoro-4-(5-methyl-1H-pyrazol-3-ylamino)quinazolin-2-yl)(4-fluorophenyl)methanol], the Kd in test [1] is greater than 100 nM; in test [2], 1 to 10 nM. Also, the IC50 in test [3] lay within 100 to 500 nM.
For `OC(c1ccc(F)cc1)c1nc(Nc2cc[nH]n2)c2cc(F)ccc2n1` (racemic) [Example 55, (R,S)-(4-(1H-pyrazol-3-ylamino)-6-fluoroquinazolin-2-yl)(4-fluorophenyl)methanol], the Kd in test [1] was greater than 100 nM; in test [2] it was 1 to 10 nM. For the same molecule, in test [3], the IC50 is greater than 500 nM.
On the same counts, the results for `OC(c1ccc(F)cc1)c1nc(Nc2cc[nH]n2)c2ccc(Br)cc2n1` (racemic) [Example 58, (R,S)-(4-(1H-pyrazol-3-ylamino)-7-bromoquinazolin-2-yl)(4-fluorophenyl)methanol] are greater than 100 nM, 1 to 10 nM and 100 to 500 nM.
For `Cc1cc(Nc2nc(C(O)c3ccc(F)cc3)nc3c(F)cccc23)n[nH]1` (racemic) [Example 61, (R,S)-(8-fluoro-4-(5-methyl-1H-pyrazol-3-ylamino)quinazolin-2-yl)(4-fluorophenyl)methanol], in that order: 10 to 100 nM, no more than 1 nM and 100 to 500 nM.
For `COc1ccccc1C(O)c1nc(Nc2cc(C)[nH]n2)c2ccccc2n1` (racemic) [Example 63, (R,S)-(2-methoxyphenyl)(4-(5-methyl-1H-pyrazol-3-ylamino)quinazolin-2-yl)methanol], in that order: 10 to 100 nM, 1 to 10 nM and 100 to 500 nM.
On to `Cc1cc(Nc2nc(C(O)c3ccc(F)c(F)c3)nc3ccccc23)n[nH]1` (racemic) [Example 66, (R,S)-(3,4-difluorophenyl)(4-(5-methyl-1H-pyrazol-3-ylamino)quinazolin-2-yl)methanol], for which the Kd was no more than 10 nM in test [1] and no more than 1 nM in test [2]. Besides, the IC50 in test [3] is 100 to 500 nM.
With `[2H]C(O)(c1ccc(F)cc1)c1nc(Nc2cc(C)[nH]n2)c2ccccc2n1` (racemic) [Example 72, (R,S) (4-fluorophenyl)(4-(5-methyl-1H-pyrazol-3-ylamino)quinazolin-2-yl)methanol-1-d], in test [3], the IC50 is no more than 100 nM.
As to `CCc1cc(Nc2nc(C(O)c3ccc(F)cc3)nc3ccccc23)n[nH]1` (racemic) [Example 74, (R,S)-(4-(5-ethyl-1H-pyrazol-3-ylamino)quinazolin-2-yl)(4-fluorophenyl)methanol], in test [2], the Kd was no more than 1 nM.
Same read-out and setting: for `Cc1cc(Nc2nc(C(O)c3ccc(F)c(O)c3)nc3ccccc23)n[nH]1` (racemic) [Example 78, (R,S)-(2-fluoro-5-(hydroxy(4-(5-methyl-1H-pyrazol-3-ylamino)quinazolin-2-yl)methyl)phenol acetate] the value was no more than 1 nM.
Turning to `Fc1ccc(C(F)(F)c2nc(Nc3cc[nH]n3)c3ccc(F)cc3n2)cc1` [Example 21, 2-(difluoro(4-fluorophenyl)methyl)-7-fluoro-N-(1H-pyrazol-3-yl)quinazolin-4-amine], the Kd in test [1] lay within 10 to 100 nM; in test [2], 1 to 10 nM. For the same molecule, in test [3], the IC50 was in the range of 100 to 500 nM.
As for `O=C(c1ccc(F)cc1)c1nc(Nc2cc[nH]n2)c2ccc(I)cc2n1` [Example 22, (4-(1H-pyrazol-3-ylamino)-7-iodoquinazolin-2-yl)(4-fluorophenyl)methanone], the Kd in test [1] was greater than 100 nM; in test [2], 1 to 10 nM. Moreover, the IC50 in test [3] fell in the range of 100 to 500 nM.
On the same counts, the results for `Cc1ccc2c(Nc3cc[nH]n3)nc(C(F)(F)c3ccc(F)cc3)nc2c1` [Example 27, 2-(difluoro(4-fluorophenyl)methyl)-7-methyl-N-(1H-pyrazol-3-yl)quinazolin-4-amine] are 10 to 100 nM, no more than 1 nM and no more than 100 nM.
On the same counts, the results for `Cc1cc(Nc2nc(C(F)(F)c3ccc(F)cc3)nc3cc(CO)ccc23)n[nH]1` [Example 49, (2-(difluoro(4-fluorophenyl)methyl)-4-(5-methyl-1H-pyrazol-3-ylamino)quinazolin-7-yl)methanol] are no more than 10 nM, no more than 1 nM and no more than 100 nM.
`Cc1cc(Nc2nc(C(=O)c3ccc(F)cc3)nc3ccc(F)cc23)n[nH]1` [Example 53, (6-fluoro-4-(5-methyl-1H-pyrazol-3-ylamino)quinazolin-2-yl)(4-fluorophenyl)methanone]: the figures for the Kd in test [1] and in test [2] were greater than 100 nM and 1 to 10 nM, respectively. Also, in test [3], the 50% inhibitory concentration (IC50) was in the range of 100 to 500 nM.
For `Cc1cc(Nc2nc(C(=O)c3ccc(F)cc3)nc3cc(Br)ccc23)n[nH]1` [Example 56, (7-bromo-4-(5-methyl-1H-pyrazol-3-ylamino)quinazolin-2-yl)(4-fluorophenyl)methanone], in that order: 10 to 100 nM, 1 to 10 nM and 100 to 500 nM.
`Cc1cc(Nc2nc(C(O)c3ccc(F)cc3)nc3cc(Br)ccc23)n[nH]1` (stereo not shown) [Example 57, (7-bromo-4-(5-methyl-1H-pyrazol-3-ylamino)quinazolin-2-yl)(4-fluorophenyl)methanol]: the Kd in test [2] lay within 1 to 10 nM. For the same molecule, the IC50 in test [3] lay within 100 to 500 nM.
`Cc1cc(Nc2nc(C3(c4ccc(F)cc4)OCCO3)nc3ccccc23)n[nH]1` [Example 59, 2-(2-(4-fluorophenyl)-1,3-dioxolan-2-yl)-N-(5-methyl-1H-pyrazol-3-yl)quinazolin-4-amine]: the values for the Kd in test [1] and in test [2] were 10 to 100 nM and no more than 1 nM, respectively. The IC50 in test [3] was no more than 100 nM.
For `Cc1cc(Nc2nc(C(=O)c3ccc(F)cc3)nc3c(F)cccc23)n[nH]1` [Example 60, (8-fluoro-4-(5-methyl-1H-pyrazol-3-ylamino)quinazolin-2-yl)(4-fluorophenyl)methanone], in that order: greater than 100 nM, 1 to 10 nM and 100 to 500 nM.
On the same counts, the results for `COc1ccccc1C(=O)c1nc(Nc2cc(C)[nH]n2)c2ccccc2n1` [Example 62, (2-methoxyphenyl)(4-(5-methyl-1H-pyrazol-3-ylamino)quinazolin-2-yl)methanone] are greater than 100 nM, 1 to 10 nM and 100 to 500 nM.
For `Cc1cc(Nc2nc(C(O)c3cccc(F)c3)nc3ccccc23)n[nH]1` (stereo not shown) [Example 64, (3-fluorophenyl)(4-(5-methyl-1H-pyrazol-3-ylamino)quinazolin-2-yl)methanol], the values for the Kd in test [1] and in test [2] were 10 to 100 nM and 1 to 10 nM, respectively. For the same molecule, the IC50 in test [3] fell in the range of 100 to 500 nM.
For `Cc1cc(Nc2nc(C(NC=O)c3ccc(F)cc3)nc3ccccc23)n[nH]1` (stereo not shown) [Example 65, N-((4-fluorophenyl)(4-(5-methyl-1H-pyrazol-3-ylamino)quinazolin-2-yl)methyl)formamide], in that order: 10 to 100 nM, no more than 1 nM and 100 to 500 nM.
On the same counts, the results for `Cc1cc(Nc2nc(C(O)c3ccc(F)c(Cl)c3)nc3ccccc23)n[nH]1` (stereo not shown) [Example 67, (3-chloro-4-fluorophenyl)(4-(5-methyl-1H-pyrazol-3-ylamino)quinazolin-2-yl)methanol] are no more than 10 nM, no more than 1 nM and 100 to 500 nM.
On to `COc1cc(C(=O)c2nc(Nc3cc(C)[nH]n3)c3ccccc3n2)ccc1F` [Example 76, (4-fluoro-3-methoxyphenyl)(4-(5-methyl-1H-pyrazol-3-ylamino)quinazolin-2-yl)methanone], for which the Kd in test [2] is greater than 10 nM.
Still for that read-out and setting: for `Cc1cc(Nc2nc(C(=O)c3ccc(F)c(O)c3)nc3ccccc23)n[nH]1` [Example 77, (4-fluoro-3-hydroxyphenyl)(4-(5-methyl-1H-pyrazol-3-ylamino)quinazolin-2-yl)methanone] the value was greater than 10 nM.
